Assay results from the supplement of paper PMC10627819.

Tests used:
S. pneumoniae D39V [1] = assay: fitness (endpoint OD595 vs no drug) (fraction); higher = more growth
Summary of the method: (§1)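 Bacterial growth was followed in 384-well plates seeded at OD595 0.01, with 30 µl per well, or 55 µl for S. pneumoniae, in TSB, LB Lennox or CY at 37 °C. OD595 was read every 30 min for 14 h, and each reading had the first reading subtracted as background. Fitness is the background-corrected optical density at entry into stationary phase divided by the robust mean of the no-drug control wells. This ratio is capped at 1.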

S. aureus Newman [2] = assay: as above
Summary of the method: as §1

S. aureus DSM 20231 [3] = assay: as above
Summary of the method: as §1

S. pneumoniae D39V [4] = assay: Bliss interaction score (quartile over a dose matrix) (fitness difference); higher = more antagonism (negative = synergy)
Summary of the method: (§2)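 Quartiles of the Bliss score were taken over technical, biological and donor/recipient replicates. That score is observed fitness minus the product of the single-drug fitness values, which were inferred from combination data. Fitness itself is OD595 at entry into stationary phase divided by the plate's robust no-drug mean, with a cap at 1.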

B. subtilis 168 = assay: as above
Summary of the method: as §2

S. aureus Newman [5] = assay: as above
Summary of the method: as §2

S. aureus DSM 20231 [6] = assay: as above
Summary of the method: as §2
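Throughout, for Bliss interaction score (quartile over a dose matrix): first quartile when negative (synergy) and third quartile when positive (antagonism).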

Cc1ncc([N+](=O)[O-])n1CCO [Metronidazole] + CN[C@H](CC(C)C)C(=O)N[C@H]1C(=O)N[C@@H](CC(N)=O)C(=O)N[C@H]2C(=O)N[C@H]3C(=O)N[C@H](C(=O)N[C@H](C(=O)O)c4cc(O)cc(O)c4-c4cc3ccc4O)[C@H](O)c3ccc(c(Cl)c3)Oc3cc2cc(c3O[C@@H]2O[C@H](CO)[C@@H](O)[C@H](O)[C@H]2O[C@H]2C[C@](C)(N)[C@H](O)[C@H](C)O2)Oc2ccc(cc2Cl)[C@H]1O [Vancomycin]
Conditions | fitness
S. aureus DSM 20231 [3], first compound 0.625 µg/mL, partner 0.1875 µg/mL | ≥ 1
S. aureus DSM 20231 [3], first compound 0.625 µg/mL, partner 0.375 µg/mL | ≥ 1
S. aureus DSM 20231 [3], first compound 0.625 µg/mL, partner 0.75 µg/mL | ≥ 1
S. aureus DSM 20231 [3], first compound 1.25 µg/mL, partner 0.1875 µg/mL | ≥ 1
S. aureus DSM 20231 [3], first compound 1.25 µg/mL, partner 0.375 µg/mL | ≥ 1
S. aureus DSM 20231 [3], first compound 1.25 µg/mL, partner 0.75 µg/mL | ≥ 1
S. aureus DSM 20231 [3], first compound 2.5 µg/mL, partner 0.1875 µg/mL | ≥ 1
S. aureus DSM 20231 [3], first compound 2.5 µg/mL, partner 0.375 µg/mL | 1
S. aureus DSM 20231 [3], first compound 2.5 µg/mL, partner 0.75 µg/mL | 0.995
S. aureus Newman [2], first compound 0.625 µg/mL, partner 0.1875 µg/mL | 0.987
S. aureus Newman [2], first compound 0.625 µg/mL, partner 0.375 µg/mL | ≥ 1
S. aureus Newman [2], first compound 0.625 µg/mL, partner 0.75 µg/mL | ≥ 1
S. aureus Newman [2], first compound 1.25 µg/mL, partner 0.1875 µg/mL | 0.968
S. aureus Newman [2], first compound 1.25 µg/mL, partner 0.375 µg/mL | ≥ 1
S. aureus Newman [2], first compound 1.25 µg/mL, partner 0.75 µg/mL | 0.953
S. aureus Newman [2], first compound 2.5 µg/mL, partner 0.1875 µg/mL | ≥ 1
S. aureus Newman [2], first compound 2.5 µg/mL, partner 0.375 µg/mL | ≥ 1
S. aureus Newman [2], first compound 2.5 µg/mL, partner 0.75 µg/mL | ≥ 1
S. pneumoniae D39V [1], first compound 1.073 µg/mL, partner 0.125 µg/mL | ≥ 1
S. pneumoniae D39V [1], first compound 1.073 µg/mL, partner 0.5 µg/mL | 0.0194
S. pneumoniae D39V [1], first compound 1.25 µg/mL, partner 0.03125 µg/mL | 0.992
S. pneumoniae D39V [1], first compound 1.25 µg/mL, partner 0.0625 µg/mL | 0.959
S. pneumoniae D39V [1], first compound 1.25 µg/mL, partner 0.125 µg/mL | 0.825
S. pneumoniae D39V [1], first compound 2.145 µg/mL, partner 0.125 µg/mL | 0.895
S. pneumoniae D39V [1], first compound 2.145 µg/mL, partner 0.5 µg/mL | 0.0439
S. pneumoniae D39V [1], first compound 2.5 µg/mL, partner 0.03125 µg/mL | ≥ 1
S. pneumoniae D39V [1], first compound 2.5 µg/mL, partner 0.0625 µg/mL | 0.966
S. pneumoniae D39V [1], first compound 2.5 µg/mL, partner 0.125 µg/mL | 0.807
S. pneumoniae D39V [1], first compound 4.29 µg/mL, partner 0.125 µg/mL | ≥ 1
S. pneumoniae D39V [1], first compound 4.29 µg/mL, partner 0.5 µg/mL | 0.108
S. pneumoniae D39V [1], first compound 5 µg/mL, partner 0.03125 µg/mL | 0.986
S. pneumoniae D39V [1], first compound 5 µg/mL, partner 0.0625 µg/mL | 0.938
S. pneumoniae D39V [1], first compound 5 µg/mL, partner 0.125 µg/mL | 0.792

fitness, S. aureus Newman [2], one replicate
Conditions | first compound 0.781 µg/mL | first compound 1.562 µg/mL | first compound 3.124 µg/mL
partner 0.1875 µg/mL | ≥ 1 | ≥ 1 | 0.995
partner 0.375 µg/mL | ≥ 1 | 0.995 | 0.99
partner 0.75 µg/mL | ≥ 1 | 0.99 | ≥ 1

Conditions | Bliss interaction score
B. subtilis 168 | 0.0651
S. aureus DSM 20231 [6] | 0.033
S. aureus Newman [5] | 0.0696
S. pneumoniae D39V [4] | 0.123

COc1ccc(C[C@H](N)C(=O)N[C@H]2[C@@H](O)[C@H](n3cnc4c(N(C)C)ncnc43)O[C@@H]2CO)cc1 [Puromycin] + Cn1nnc(-c2ccc(-c3ccc(N4C[C@H](CO)OC4=O)cc3F)cn2)n1 [Tedizolid]
fitness
Conditions | partner 0.03125 µg/mL | partner 0.0625 µg/mL | partner 0.125 µg/mL | partner 0.25 µg/mL
S. aureus DSM 20231 [3], first compound 0.39 µg/mL | – | 0.879 | 0.7 | 0.24
S. aureus DSM 20231 [3], first compound 0.78 µg/mL | – | 0.831 | 0.794 | 0.267
S. aureus DSM 20231 [3], first compound 1.56 µg/mL | – | 0.827 | – | 0.157
S. aureus Newman [2], first compound 0.39 µg/mL | – | 0.987 | 0.884 | 0.479
S. aureus Newman [2], first compound 0.78 µg/mL | – | 0.935 | 0.834 | 0.404
S. aureus Newman [2], first compound 1.56 µg/mL | – | 0.942 | 0.829 | 0.304
S. pneumoniae D39V [1], first compound 1 µg/mL | 0.967 | 0.966 | 0.787 | –
S. pneumoniae D39V [1], first compound 2 µg/mL | 0.958 | 0.935 | 0.78 | –
S. pneumoniae D39V [1], first compound 4 µg/mL | 0.819 | 0.828 | 0.756 | –

fitness, one replicate
Conditions | partner 0.0625 µg/mL | partner 0.125 µg/mL | partner 0.25 µg/mL | partner 0.5 µg/mL
S. aureus DSM 20231 [3], first compound 3.12 µg/mL | 0.503 | 0.148 | 0.0225 | –
S. aureus DSM 20231 [3], first compound 6.24 µg/mL | 0.224 | 0.0566 | 0.0172 | –
S. pneumoniae D39V [1], first compound 1 µg/mL | – | – | 0.652 | 0.184
S. pneumoniae D39V [1], first compound 2 µg/mL | – | – | 0.686 | 0.284
S. pneumoniae D39V [1], first compound 4 µg/mL | – | – | 0.499 | 0.234

Conditions | Bliss interaction score
B. subtilis 168 | -0.0598
S. aureus DSM 20231 [6] | -0.0959
S. aureus Newman [5] | 0.0352
S. pneumoniae D39V [4] | -0.1

COc1cccc2c1C(=O)c1c(O)c3c(c(O)c1C2=O)C[C@@](O)(C(=O)CO)C[C@@H]3O[C@H]1C[C@H](N)[C@H](O)[C@H](C)O1 [Doxorubicin] + CN[C@H](CC(C)C)C(=O)N[C@H]1C(=O)N[C@@H](CC(N)=O)C(=O)N[C@H]2C(=O)N[C@H]3C(=O)N[C@H](C(=O)N[C@H](C(=O)O)c4cc(O)cc(O)c4-c4cc3ccc4O)[C@H](O)c3ccc(c(Cl)c3)Oc3cc2cc(c3O[C@@H]2O[C@H](CO)[C@@H](O)[C@H](O)[C@H]2O[C@H]2C[C@](C)(N)[C@H](O)[C@H](C)O2)Oc2ccc(cc2Cl)[C@H]1O [Vancomycin]
Conditions | fitness
S. aureus DSM 20231 [3], first compound 0.625 µg/mL, partner 0.1875 µg/mL | 0.843
S. aureus DSM 20231 [3], first compound 0.625 µg/mL, partner 0.375 µg/mL | 0.869
S. aureus DSM 20231 [3], first compound 0.625 µg/mL, partner 0.75 µg/mL | 0.888
S. aureus DSM 20231 [3], first compound 1.25 µg/mL, partner 0.1875 µg/mL | 0.84
S. aureus DSM 20231 [3], first compound 1.25 µg/mL, partner 0.375 µg/mL | 0.927
S. aureus DSM 20231 [3], first compound 1.25 µg/mL, partner 0.75 µg/mL | 0.894
S. aureus DSM 20231 [3], first compound 2.5 µg/mL, partner 0.1875 µg/mL | 0.787
S. aureus DSM 20231 [3], first compound 2.5 µg/mL, partner 0.375 µg/mL | 0.952
S. aureus DSM 20231 [3], first compound 2.5 µg/mL, partner 0.75 µg/mL | 0.907
S. aureus Newman [2], first compound 0.625 µg/mL, partner 0.1875 µg/mL | 0.849
S. aureus Newman [2], first compound 0.625 µg/mL, partner 0.375 µg/mL | 0.825
S. aureus Newman [2], first compound 0.625 µg/mL, partner 0.75 µg/mL | 0.851
S. aureus Newman [2], first compound 1.25 µg/mL, partner 0.1875 µg/mL | 0.823
S. aureus Newman [2], first compound 1.25 µg/mL, partner 0.375 µg/mL | 0.814
S. aureus Newman [2], first compound 1.25 µg/mL, partner 0.75 µg/mL | 0.794
S. aureus Newman [2], first compound 2.5 µg/mL, partner 0.1875 µg/mL | 0.764
S. aureus Newman [2], first compound 2.5 µg/mL, partner 0.375 µg/mL | 0.745
S. aureus Newman [2], first compound 2.5 µg/mL, partner 0.75 µg/mL | 0.731
S. pneumoniae D39V [1], first compound 0.25 µg/mL, partner 0.03125 µg/mL | 0.92
S. pneumoniae D39V [1], first compound 0.25 µg/mL, partner 0.0625 µg/mL | 0.851
S. pneumoniae D39V [1], first compound 0.25 µg/mL, partner 0.125 µg/mL | 0.88
S. pneumoniae D39V [1], first compound 0.25 µg/mL, partner 0.5 µg/mL | 0.0816
S. pneumoniae D39V [1], first compound 0.5 µg/mL, partner 0.03125 µg/mL | 0.924
S. pneumoniae D39V [1], first compound 0.5 µg/mL, partner 0.0625 µg/mL | 0.898
S. pneumoniae D39V [1], first compound 0.5 µg/mL, partner 0.125 µg/mL | 0.913
S. pneumoniae D39V [1], first compound 0.5 µg/mL, partner 0.5 µg/mL | 0.0725
S. pneumoniae D39V [1], first compound 1 µg/mL, partner 0.03125 µg/mL | 0.865
S. pneumoniae D39V [1], first compound 1 µg/mL, partner 0.0625 µg/mL | 0.8
S. pneumoniae D39V [1], first compound 1 µg/mL, partner 0.25 µg/mL | 0.377
S. pneumoniae D39V [1], first compound 1 µg/mL, partner 0.5 µg/mL | 0.0604

Conditions | Bliss interaction score
B. subtilis 168 | -0.0982
S. aureus DSM 20231 [6] | -0.0449
S. aureus Newman [5] | -0.0426
S. pneumoniae D39V [4] | 0.048
